The values that follow come from US20120309699A1, “COMPOUNDS HAVING ANTI-INFLAMMATORY ACTIVITY” (Consejo Superior de Investigaciones Cientificas (CSIC), priority 2009, published 2012).

One assay concerns Myeloperoxidase (MPO). The experiment in a line: Myeloperoxidase activity in colonic mucosa (DSS model). In kind it is in vivo, mice. To be noted: after DSS; HED 10 mg. The protocol: (§1) A model for intestinal inflammation based on the administration of DSS (sodium dextran sulfate) to C57BL/6 mice was used. At the present time there is no consensus about which overall is the best model for experimental colitis. The DSS model has been widely used because it has clinical, morphological and analytical characteristics which up to a point are similar to those specific to patients with ulcerative colitis or Crohn's disease.
(§2) The in vivo inflammation test was carried out using duplicates separated by a number of months. In each test each group of animals (n=8) was fed a standard diet supplemented with 2.3 mg/day/kg (animal weight) of each of the compounds, depending upon the group. […]
(§3) • Monitoring of weight, food and drink ingestion. The mice in all groups were individually monitored, with weight, quantity of food ingested and water drunk each day being monitored throughout the experimental test. • Blood and water in feces. The water content of feces, as an indication of diarrhea, was evaluated using the difference in weight following evaporation in a stove. Blood was measured using reactive strips based on the guaiacol-peroxidase reaction (HealthCare Diagnosis Inc.). […] The reaction was measured using a scale from 0 (negative result) to 4 (most intense color change). • Length of colon. After sacrifice the colon was obtained from each mouse, extended and measured. […]

For a further assay, the system named is haptoglobin. In words: Systemic inflammation marker haptoglobin (DSS model). In kind it is in vivo, mice. To be noted: vs DSS group; HED 10 mg. As for the experimental part:
as §1
(§4) The in vivo inflammation test was carried out using duplicates separated by a number of months. In each test each group of animals (n=8) was fed a standard diet supplemented with 2.3 mg/day/kg (animal weight) of each of the compounds, depending upon the group. This dose assumes the ingestion of 0.05 mg/day (50 μg/day) per mouse (having a mean weight of 22 grams). This dose extrapolated to a human being is equivalent to 10 mg in an adult weighing 70 kg; using the formula HED (human equivalent dose)=animal dose in mg/kg×(animal weight kg/human weight in kg)^0.33.
(§5) In each test the mice were fed for 3 weeks during which 1% DSS was included in their drink. The DSS was maintained for 8 days (and the same food as from the start). Then the DSS was withdrawn and the animals were allowed to recover for another 6 days (again with the same food).
(§6) • Monitoring of weight, food and drink ingestion. The mice in all groups were individually monitored, with weight, quantity of food ingested and water drunk each day being monitored throughout the experimental test. • Blood and water in feces. The water content of feces, as an indication of diarrhea, was evaluated using the difference in weight following evaporation in a stove. Blood was measured using reactive strips based on the guaiacol-peroxidase reaction (HealthCare Diagnosis Inc.). […] The reaction was measured using a scale from 0 (negative result) to 4 (most intense color change). • Length of colon. After sacrifice the colon was obtained from each mouse, extended and measured. […] This was evaluated by spectrophotometry at 460 nm using O-dianisidine reagent and hydrogen peroxide. The change in absorbance at 460 nm was monitored over 10 minutes in a V-630 spectrophotometer (Jasco, Tokyo, Japan). MPO activity was expressed as mU of activity/mg of fresh tissue, comparing the increase in absorbance with a standard straight line obtained using leukocyte myeloperoxidase (Sigma). • Prostaglandins in colonic mucosa. Levels of PGE2 were measured in colonic mucosa homogenates using an immunoenzyme method using a Cayman Chem. kit (USA). • “Antibody array”. […] The signal was detected by chemoluminescence. […] Signal intensities (densitometry) were analyzed using ScanAlyze software. […] The changes in cytokine levels were expressed as mean±SD in arbitrary density units. […]

The subject of the next assay is fibrinogen. The experiment in a line: Systemic inflammation marker fibrinogen (DSS model). The class given is in vivo, mice. To be noted: vs DSS group; HED 10 mg. As for the experimental part:
as §1, §4, §5, §6

The test system of the next assay is bifidobacteria. In words: Microbiota counts in feces: bifidobacteria. In kind it is in vivo, mice. To be noted: after administration of DSS; HED 10 mg. As for the experimental part: as §1, §4, §5, §6
Another assay concerns lactobacilli. In words: Microbiota counts in feces: lactobacilli. In kind it is in vivo, mice. To be noted: pre-treatment, maintained after DSS; HED 10 mg. As for the experimental part: as §1, §2, §3
In another assay the test system is clostridia. The experiment in a line: Microbiota counts in feces: clostridia. In kind it is in vivo, mice. The settings on record: pre-treatment, maintained after DSS; HED 10 mg. As for the experimental part: as §1, §2, §3
Another assay concerns E. coli. In words: Microbiota counts in feces: E. coli. In kind it is in vivo, mice. The settings on record: after administration of DSS; HED 10 mg. The protocol: as §1
The in vivo inflammation test was carried out using duplicates separated by a number of months. In each test each group of animals (n=8) was fed a standard diet supplemented with 2.3 mg/day/kg (animal weight) of each of the compounds, depending upon the group. This dose assumes the ingestion of 0.05 mg/day (50 μg/day) per mouse (having a mean weight of 22 grams). This dose extrapolated to a human being is equivalent to 10 mg in an adult weighing 70 kg; using the formula HED (human equivalent dose)=animal dose in mg/kg×(animal weight kg/human weight in kg)^0.33. […]
• Monitoring of weight, food and drink ingestion. The mice in all groups were individually monitored, with weight, quantity of food ingested and water drunk each day being monitored throughout the experimental test. • Blood and water in feces. The water content of feces, as an indication of diarrhea, was evaluated using the difference in weight following evaporation in a stove. Blood was measured using reactive strips based on the guaiacol-peroxidase reaction (HealthCare Diagnosis Inc.). […] The reaction was measured using a scale from 0 (negative result) to 4 (most intense color change). • Length of colon. After sacrifice the colon was obtained from each mouse, extended and measured. […] This was evaluated by spectrophotometry at 460 nm using O-dianisidine reagent and hydrogen peroxide. The change in absorbance at 460 nm was monitored over 10 minutes in a V-630 spectrophotometer (Jasco, Tokyo, Japan). […] Levels of PGE2 were measured in colonic mucosa homogenates using an immunoenzyme method using a Cayman Chem. kit (USA). • “Antibody array”. […] The signal was detected by chemoluminescence. […]

Another assay concerns Salmonella. In words: Adhesion of Salmonella to Caco-2 cells. In kind it is cell-based, human. To be noted: Caco-2, 25 μM/well; in comparison with resveratrol and the other derivatives. The protocol:
(§7) We used two cell models for colon cancer to evaluate the anti-adhesion capacity of compounds derived from resveratrol against pathogenic bacteria in food: Caco-2 (a model frequently used to measure the adhesion of microorganisms) and HT-29 (a model frequently used to measure immune response to infections by enteropathogens). Caco-2 and HT-29 cells were grown in EMEM and DMEM respectively, for which 24 well plates were used at 37° C., 5% CO2, 95% air until a single layer of confluent epithelium formed (cell concentration per well 2×10^5 and 6×10^5 respectively). Pathogenic bacteria (E. coli O157, Salmonella and Listeria monocytogenes Scott A) were placed in contact with the various compounds derived from resveratrol for 1 hour and subsequently the bacteria together with the different compounds in a concentration of 25 μM/well were inoculated on the cell cultures, incubating the plates for 2 hours at 37° C., 5% CO2, 95% air. The plates were then washed 3 times with 1 ml of sterile PBS and 1 ml of distilled water with 20% of glycerol was added, and they were frozen at −70° C. to lyse the epithelial cells. […] Concentrations of the various derivatives tested were detected in the digestive tracts of experimental animals and therefore the test lay within the range of physiologically achievable concentrations.

In assay [1] the test system is Listeria monocytogenes Scott A. The experiment in a line: Adhesion of L. monocytogenes to Caco-2 cells. The class given is cell-based, human. The settings on record: Caco-2, 25 μM/well; in comparison with resveratrol and the other derivatives. The protocol:
as §7

The test system of a further assay is interleukin-8 (IL-8). In words: Production of interleukin-8 in HT-29 cells inoculated with Listeria monocytogenes Scott A. To be noted: HT-29, Listeria monocytogenes Scott A; for Modulation of IL-8 production at increased dose: 50 and 100 μM; for Production of IL-8: 6 hours. In kind it is cell-based, human. As for the experimental part: The human colon carcinoma cell HT-29 model was used to evaluate the ability of the compounds derived from resveratrol to modulate the production of interleukin-8 as a response to pathogenic food bacteria. […] Cell viability was observed under the microscope and the supernatants from the wells were recovered. After centrifuging (10,000 rpm/10 min) and filtering the supernatants (0.22), IL-8 was determined using the ELISA method (Human Elisa IL-8 diaclone). The concentrations of the various derivatives tested were detected in the digestive tract of experimental animals and therefore the test fell within the range of physiological achievable concentrations.

In the case of `CCCCCCCC(=O)OCC1OC(Oc2cc(O)cc(/C=C/c3ccc(O)cc3)c2)C(O)C(O)C1O` [OCT, trans-resveratrol-3-O-(6′-O-octanoyl)-β-D-glucopyranoside], the “Myeloperoxidase activity in colonic mucosa” value in the assay with Myeloperoxidase (MPO) was “most obvious fall”. Further, in the assay on haptoglobin, the Blood haptoglobin levels entry is on record as “most notable differences”. In the assay with fibrinogen, the Blood fibrinogen levels entry was “most notable differences”. In addition, the “Bifidobacteria count in feces” value with bifidobacteria is given as “continued the upward trend”. For the same compound, in the assay on lactobacilli, the “Population of lactobacilli in feces” value is reported as “increases the population”. Also, the “Population of clostridia in feces” value with clostridia is recorded as “increases the population”. The “E. coli count in feces” value with E. coli was “clear reduction”. For the same compound, the “Anti-adhesion efficacy in respect of Salmonella” value in the assay with Salmonella is recorded as “greater anti-adhesion efficacy”. Further, the “Anti-adhesion efficacy in respect of L. monocytogenes” value in assay [1] is “greater anti-adhesion efficacy”. Besides, in the assay on interleukin-8 (IL-8), the “Modulation of IL-8 production at increased dose” value is “more obvious” and the “Production of IL-8” value is recorded as “reduced production significantly”.
Consider `CCCC(=O)OCC1OC(Oc2cc(O)cc(/C=C/c3ccc(O)cc3)c2)C(O)C(O)C1O` [BUT, trans-resveratrol-3-O-(6′-O-butanoyl)-β-D-glucopyranoside], for which the “Myeloperoxidase activity in colonic mucosa” value with Myeloperoxidase (MPO) is given as “most obvious fall”. In addition, the Blood haptoglobin levels entry in the assay with haptoglobin is “most notable differences”. Further, the Blood fibrinogen levels entry in the assay with fibrinogen is “most notable differences”. Also, the “Bifidobacteria count in feces” value in the assay with bifidobacteria is on record as “continued the upward trend”. Further, in the assay with lactobacilli, the “Population of lactobacilli in feces” value is “increases the population”. The “Population of clostridia in feces” value in the assay on clostridia is “increases the population”. The “E. coli count in feces” value with E. coli is recorded as “clear reduction”. In addition, in the assay on Salmonella, the “Anti-adhesion efficacy in respect of Salmonella” value is recorded as “greater anti-adhesion efficacy”. In [1], the “Anti-adhesion efficacy in respect of L. monocytogenes” value was “greater anti-adhesion efficacy”. In the assay on interleukin-8 (IL-8), the “Modulation of IL-8 production at increased dose” value was “more obvious” and the “Production of IL-8” value is reported as “reduced production significantly”.
